Patent publication US7288573B2, “Method of repelling insects” (priority 2001, dated 2007)
Values joined by “and” are separate entries in the source; they are usually repeats but may differ in a detail not shown here. Equal entries are not always repeated. “Also recorded” adds a separate entry of the source.

Legend:
Culex spp. = experiment: Mosquito repellency of 2-undecanone and 2-tridecanone, treated arm in cage (Example 6); type: in vivo; conditions: for No. landings: single replicates; for observed repellent / residual activity (words): observed up to 24 hours post-treatment
Text: Cages. The same two mosquitoes cages described in Example 5 were used for this example. The cages were constructed using wood framing and fine mesh wire screen. The dimensions of each cage were 59 cm high×55 cm wide by 59 cm deep. A hinged access door was installed at the front of each chamber for insertion of the water-filled containers filled with mosquito pupae. Also present at the front of each chamber was a 9 cm diameter plastic tube (i.d.) for insertion of the arm of the investigator. The arm insertion tube was sealed with a rubber stopper when not in use.
Mosquitoes and Mosquito Rearing. Mosquitoes (Culex spp.) were obtained (as pupae and larvae) from Carolina Biological Supply Co., Burlington, N.C., USA in two successive shipments, so as to provide a continuing long term supply of fresh insects. Following their arrival, the mosquitoes were divided into approximately equal numbers in multiple water-filled containers and placed in the two cages described above. The larval and pupal cultures were fed with insect rearing compound. In addition, the water was changed regularly by filtration to minimize contamination and prevent overcrowding. Continuous culturing made it possible to increase the mosquito numbers to more than 100 insects per cage.
Test Compounds and Testing Schedule. Testing was done with two compounds, 2-undecanone, and 2-tridecanone, for repellent activity by treating one arm of the investigator with approximately 1 ml of the test solution. Following several minutes for solvent evaporation, the treated arm was inserted through the insertion tube for 5 minutes. The other arm was treated with isoprbpanol (control) or a different concentration of the compound, and inserted into the insertion tube of the adjacent chamber. Next, the behavior of the mosquitoes in response to the presence of the investigator's arms was noted. Mosquito behavior was recorded as 1) landing or attempting to land on the investigator's arm, or coming to rest on the wire screen immediately adjacent to the investigator's arm or hand, versus 2) dispersal away from the treated arm towards the opposite ends of the cage. The approximate number of mosquitoes present at the beginning of the observations was noted. For treatments with 2-undecanone, observations were made initially to confirm 100% repellent activity of the compound immediately after treatment but observations were not recorded. Recording of efficacy was delayed until 6 hours after treatment, and then repeated at 12 and 24 hours post-treatment. For treatment with 2-tridecanone, the observations commenced immediately after solvent drying; then, the observations were repeated (without re-treatment of the investigator's hand and arm) after 6 hours, 12 hours and 24 hours. Treatments were alternated between the different cages. […]
2-tridecanone was obtained as a solid. To prepare this compound for testing, it was subjected to gentle heating in a 37° C. water bath to liquefy it, and aliquots of the stock were diluted volume: volume with isopropanol to 50% concentration and 20% concentration. Sufficient pure compound was retained for direct application (undiluted).
Tests were done at concentrations of 100%, 50%, and 20% for each of the two compounds, as well as 20% DEET, and the isopropanol control.
Table 3 presents the efficacy found at the different time intervals for each of the compounds at the three different concentrations and for DEET. Efficacy was calculated according to the formula: [(no. landings/no. present in control)−(no. landings/no. present in experinental) divided by (no. landings/no. present in control)]×100.

Aedes albopictus = experiment: One-minute biting counts on treated forearm (Example 7); type: in vivo
Description: This experiment was performed to evaluate the comparative repellency of 5% and 20% 2-undecanone in ethanol, 20% 2-tridecanone in isopropanol and Off!™ 14.25% DEET Insect Repellent aerosol against Aedes albopictus (Asian tiger mosquitoes) and Culex quinquefasciatus (southern house mosquitoes).
Three to four-day-old laboratory-reared female Ae. albopictus and Cx. quinquefasciatus were transferred by aspiration into eight cages measuring 10 inches high×10 inches wide×13 inches deep at a targeted stocking rate of 100 and 200, respectively. Four cages contained Ae. albopictus and four contained Cx. quinquefasciatus. A greater number of Cx. quinquefasciatus was used to compensate for lower biting activity anticipated for this species. The actual number of females per cage was lower than the target-stocking rate because of the high number of males that were inadvertently introduced into the cages. Each cage contained a screened back wall, clear Plexiglas top, stockinette entry sleeve and solid aluminum floor and sidewalls. The mosquitoes were fed water and sugar water prior to and between tests. The tests were conducted over four days, Aug. 7-10, 2001, with four men participating as testers. All testers washed both arms with a non-fragrance soap, rinsed and swabbed with 25% ethanol prior to applying treatments. Treatments were applied to the forearm in a region extending from the wrist to a point measured at 12″ back from the tip of the index finger on both arms. The 20% 2-tridecanone was not applied as uniformly as the other repellents because an insufficient quantity was available. Latex gloves were worn over the hands and replaced before each biting count. The control consisted of a soap wash, rinse and 25% ethanol swab and was conducted by the same person throughout the study. One-minute biting counts were recorded at 0, 1, 2, 4 & 6 hours post-treatment time intervals. All treatments were randomly assigned to each tester, two treatments per tester. Cage placement was also randomized at the beginning of each day of testing. Testers were rotated each day so that by the end of the study they had occupied each cage location. Each repellent was tested two times by three testers so that mean biting counts were based on six observations. A Hobo datalogger was used to monitor temperature and humidity throughout the study.
A balanced incomplete block design following American Society for Testing and Materials standards E 939-94 was employed. Data were normalized by square root transformation and submitted to analysis of variance and mean separation procedures via SS PC. Microsoft Excel 2000 pivot tables and charting functions were used to plot mean biting counts and standard errors by species and time interval for each treatment and control. Mean biting counts were transformed to percent protection or repellency by the following formula: Control−Treatment/Control×100.

[1] = 20% concentration, 6 hours after treatment
[2] = 20% concentration, 12 hours after treatment
[3] = 20% concentration, 24 hours after treatment
[4] = 50% concentration, 6 hours after treatment
[5] = 50% concentration, 6 hours after treatment, listed as IBI-246
[6] = 50% concentration, 12 hours after treatment
[7] = 50% concentration, 12 hours after treatment, listed as IBI-246
[8] = 50% concentration, 24 hours after treatment
[9] = 50% concentration, 24 hours after treatment, listed as IBI-246
[10] = 100% concentration, 6 hours after treatment
[11] = 100% concentration, 12 hours after treatment
[12] = 100% concentration, 24 hours after treatment

CCCCCCCCCC(C)=O [2-undecanone]
Percent Efficacy Post-Treatment (Culex spp.; 20% concentration, 0 hours): 100%
Percent Efficacy Post-Treatment (Culex spp.; 20% concentration, 6 hours): 46.6%
No. landings, Mean (Culex spp.; [1]): 0.7
Percent = [(No. landings/No. present)] × 100 (Culex spp.; [1]): 2.5%
Percent = [(No. landings/No. present)] × 100 (Culex spp.; 20% concentration, 6 hours after treatment, listed as 2-Undecanone): 7.1%
No. landings (Culex spp.; [1]): 0 (2×) and 2
Percent Efficacy Post-Treatment (Culex spp.; 20% concentration, 12 hours): 0%
No. landings, Mean (Culex spp.; [2]): 5.0
Percent = [(No. landings/No. present)] × 100 (Culex spp.; [2]): 17.1%
Percent = [(No. landings/No. present)] × 100 (Culex spp.; 20% concentration, 12 hours after treatment, listed as 2-Undecanone): 17.1%
No. landings (Culex spp.; [2]): 5 and 6 and 4
Percent Efficacy Post-Treatment (Culex spp.; 20% concentration, 24 hours): 0%
No. landings, Mean (Culex spp.; [3]): 4.0
Percent = [(No. landings/No. present)] × 100 (Culex spp.; [3]): 13.4%
Percent = [(No. landings/No. present)] × 100 (Culex spp.; 20% concentration, 24 hours after treatment, listed as 2-Undecanone): 13.8%
No. landings (Culex spp.; [3]): 4
Percent Efficacy Post-Treatment (Culex spp.; 50% concentration, 0 hours): 100%
Percent Efficacy Post-Treatment (Culex spp.; 50% concentration, 6 hours): 83.5%
No. landings, Mean (Culex spp.; [4]): 1.3
Percent = [(No. landings/No. present)] × 100 (Culex spp.; [4]): 1.1%
Percent = [(No. landings/No. present)] × 100 (Culex spp.; [5]): 2.2%
No. landings (Culex spp.; [5]): 0 (3×) and 1 and 3 and 4
Percent Efficacy Post-Treatment (Culex spp.; 50% concentration, 12 hours): 65.3%
No. landings, Mean (Culex spp.; [6]): 7.2
Percent = [(No. landings/No. present)] × 100 (Culex spp.; [6]): 5.8%
Percent = [(No. landings/No. present)] × 100 (Culex spp.; [7]): 5.8%
No. landings (Culex spp.; [7]): 1 and 2 (2×) and 13 (2×) and 12
Percent Efficacy Post-Treatment (Culex spp.; 50% concentration, 24 hours): 56.5%
No. landings, Mean (Culex spp.; [8]): 7.5
Percent = [(No. landings/No. present)] × 100 (Culex spp.; [8]): 5.7%
Percent = [(No. landings/No. present)] × 100 (Culex spp.; [9]): 5.7%
No. landings (Culex spp.; [9]): 3 and 2 (2×) and 11 (2×) and 16
Percent Efficacy Post-Treatment (Culex spp.; 100% concentration, 0 hours): 100%
Percent Efficacy Post-Treatment (Culex spp.; 100% concentration, 6 hours): 100%
No. landings, Mean (Culex spp.; [10]): 0
Percent = [(No. landings/No. present)] × 100 (Culex spp.; [10]): 0%
No. landings (Culex spp.; [10]): 0
Percent Efficacy Post-Treatment (Culex spp.; 100% concentration, 12 hours): 48.5%
No. landings, Mean (Culex spp.; [11]): 1.7
Percent = [(No. landings/No. present)] × 100 (Culex spp.; [11]): 8.6%
Percent = [(No. landings/No. present)] × 100 (Culex spp.; 100% concentration, 12 hours after treatment, listed as 2-Undecanone): 8.6%
No. landings (Culex spp.; [11]): 3 and 1 (2×)
Percent Efficacy Post-Treatment (Culex spp.; 100% concentration, 24 hours): 0%
No. landings, Mean (Culex spp.; [12]): 3.0
Percent = [(No. landings/No. present)] × 100 (Culex spp.; [12]): 19.1%
No. landings (Culex spp.; [12]): 3
observed repellent / residual activity (words) (Culex spp.; 100% concentration): absent after 24 hours post-treatment
observed repellent / residual activity (words) (Culex spp.; 100% concentration, listed as 2-Undecanone): Comments: Strong avoidance response was still evident at 6 hours. Avoidance was much; also recorded: weaker after 12 hours and no obvious avoidance, no dispersal away from the treated
overall repellent activity, comparison of the two compounds (Culex spp.; 100%, 50% and 20% concentrations, 0 to 24 hours): greatest activity overall
mean biting count, mean separation test versus the 20% formulations (Aedes albopictus; 5% formulation): significantly (p=0.05) lower mean biting count than the other two formulations
repellency (Aedes albopictus; 5% formulation, initial value): 100%
repellency (Aedes albopictus; 5% formulation, value to which repellency diminished): upper 60 percentile
repellency (Aedes albopictus; 20% formulations, post-treatment time intervals): low repellency
performance during the first biting count (Aedes albopictus; Off! 14.25% DEET, 5% 2-undecanone): worked well
